Literature values, collected in patent US10717749B2, “Macrocyclic sulfondiimine compounds” (BAYER PHARMA AKTIENGESELLSCHAFT, priority 2015, dated 2020).

Conditions: in vivo; cited from earlier work

C[N+]1(C)[C@@H]2C[C@@H](OC(=O)C(O)(c3cccs3)c3cccs3)C[C@H]1[C@@H]1O[C@@H]12 [tiotropium]
duration of protection against bronchospasms: more than 6 hours
